PubChem BioAssay (NCI)
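Growth conditions: 96-well plates. Treatment: test compound, 48 hours, 5 concentrations. Analysis: linear interpolation between bracketing concentrations; unreached endpoints set to highest concentration. Abbreviation: GI50, concentration required for 50% inhibition of growth. TGI is the concentration that stops growth completely.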

Tests used:
Test in all cases: NCI tumour cell line growth inhibition, 48 h
NCI-H522 lung = tested on: NCI-H522 lung
MCF7 breast = tested on: MCF7 breast
NCI-H226 lung = tested on: NCI-H226 lung
PC-3 prostate = tested on: PC-3 prostate
SNB-19 CNS = tested on: SNB-19 CNS
SF-295 CNS = tested on: SF-295 CNS
MALME-3M melanoma = tested on: MALME-3M melanoma
KM12 colon = tested on: KM12 colon
HCT-116 colon = tested on: HCT-116 colon
SK-OV-3 ovarian = tested on: SK-OV-3 ovarian
HCC-2998 colon = tested on: HCC-2998 colon
OVCAR-3 ovarian = tested on: OVCAR-3 ovarian
NCI-H460 lung = tested on: NCI-H460 lung
HS 578T breast = tested on: HS 578T breast
MOLT-4 leukemia = tested on: MOLT-4 leukemia
SNB-75 CNS = tested on: SNB-75 CNS
HL-60(TB) leukemia = tested on: HL-60(TB) leukemia
CAKI-1 renal = tested on: CAKI-1 renal
SR leukemia = tested on: SR leukemia
HT29 colon = tested on: HT29 colon
RXF 393 renal = tested on: RXF 393 renal
HOP-92 NSCLC = tested on: HOP-92 NSCLC
OVCAR-8 ovarian = tested on: OVCAR-8 ovarian
HCT-15 colon = tested on: HCT-15 colon
NCI-H23 lung = tested on: NCI-H23 lung
NCI/ADR-RES ovarian = tested on: NCI/ADR-RES ovarian
MDA-MB-231 breast = tested on: MDA-MB-231 breast
SF-268 CNS = tested on: SF-268 CNS
OVCAR-4 ovarian = tested on: OVCAR-4 ovarian
IGROV1 ovarian = tested on: IGROV1 ovarian
ACHN renal = tested on: ACHN renal
LOX IMVI melanoma = tested on: LOX IMVI melanoma
BT-549 breast = tested on: BT-549 breast
SF-539 CNS = tested on: SF-539 CNS
U251 CNS = tested on: U251 CNS
RPMI-8226 leukemia = tested on: RPMI-8226 leukemia
UO-31 renal = tested on: UO-31 renal
SK-MEL-5 melanoma = tested on: SK-MEL-5 melanoma
EKVX NSCLC = tested on: EKVX NSCLC
A498 renal = tested on: A498 renal
SK-MEL-2 melanoma = tested on: SK-MEL-2 melanoma
T-47D breast = tested on: T-47D breast
SN12C renal = tested on: SN12C renal
M14 melanoma = tested on: M14 melanoma
COLO 205 colon = tested on: COLO 205 colon
DU-145 prostate = tested on: DU-145 prostate
MDA-MB-435 = tested on: MDA-MB-435
SW-620 colon = tested on: SW-620 colon
HOP-62 NSCLC = tested on: HOP-62 NSCLC
OVCAR-5 ovarian = tested on: OVCAR-5 ovarian
SK-MEL-28 melanoma = tested on: SK-MEL-28 melanoma
K-562 leukemia = tested on: K-562 leukemia
A549 NSCLC = tested on: A549 NSCLC
786-0 renal = tested on: 786-0 renal
TK-10 renal = tested on: TK-10 renal
UACC-62 melanoma = tested on: UACC-62 melanoma

COC(=O)COc1ccccc1/C=C1/N=C(c2ccccc2)N(c2c(C)n(C)n(-c3ccccc3)c2=O)C1=O
GI50 (NCI-H522 lung): 20 µM
TGI (NCI-H522 lung): 48 µM
GI50 (MCF7 breast): 43.4 µM
TGI (MCF7 breast): > 100 µM
GI50 (NCI-H226 lung): > 100 µM
TGI (NCI-H226 lung): > 100 µM
GI50 (PC-3 prostate): > 100 µM
TGI (PC-3 prostate): > 100 µM
GI50 (SNB-19 CNS): > 100 µM
TGI (SNB-19 CNS): > 100 µM
GI50 (SF-295 CNS): > 100 µM
TGI (SF-295 CNS): > 100 µM
GI50 (MALME-3M melanoma): > 100 µM
TGI (MALME-3M melanoma): > 100 µM
GI50 (KM12 colon): 79.6 µM
TGI (KM12 colon): > 100 µM
GI50 (HCT-116 colon): > 100 µM
TGI (HCT-116 colon): > 100 µM
GI50 (SK-OV-3 ovarian): > 100 µM
TGI (SK-OV-3 ovarian): > 100 µM
GI50 (HCC-2998 colon): 47.3 µM
TGI (HCC-2998 colon): > 100 µM
GI50 (OVCAR-3 ovarian): 20.9 µM
TGI (OVCAR-3 ovarian): 50.9 µM
GI50 (NCI-H460 lung): > 100 µM
TGI (NCI-H460 lung): > 100 µM
GI50 (HS 578T breast): > 100 µM
TGI (HS 578T breast): > 100 µM
GI50 (MOLT-4 leukemia): > 100 µM
TGI (MOLT-4 leukemia): > 100 µM
GI50 (SNB-75 CNS): > 100 µM
TGI (SNB-75 CNS): > 100 µM
GI50 (HL-60(TB) leukemia): > 100 µM
TGI (HL-60(TB) leukemia): > 100 µM
GI50 (CAKI-1 renal): > 100 µM
TGI (CAKI-1 renal): > 100 µM
GI50 (SR leukemia): 31.7 µM
TGI (SR leukemia): > 100 µM
GI50 (HT29 colon): > 100 µM
TGI (HT29 colon): > 100 µM
GI50 (RXF 393 renal): > 100 µM
TGI (RXF 393 renal): > 100 µM
GI50 (HOP-92 NSCLC): > 100 µM
TGI (HOP-92 NSCLC): > 100 µM
GI50 (OVCAR-8 ovarian): > 100 µM
TGI (OVCAR-8 ovarian): > 100 µM
GI50 (HCT-15 colon): > 100 µM
TGI (HCT-15 colon): > 100 µM
GI50 (NCI-H23 lung): > 100 µM
TGI (NCI-H23 lung): > 100 µM
GI50 (NCI/ADR-RES ovarian): > 100 µM
TGI (NCI/ADR-RES ovarian): > 100 µM
GI50 (MDA-MB-231 breast): > 100 µM
TGI (MDA-MB-231 breast): > 100 µM
GI50 (SF-268 CNS): > 100 µM
TGI (SF-268 CNS): > 100 µM
GI50 (OVCAR-4 ovarian): 75.1 µM
TGI (OVCAR-4 ovarian): > 100 µM
GI50 (IGROV1 ovarian): 46.1 µM
TGI (IGROV1 ovarian): > 100 µM
GI50 (ACHN renal): > 100 µM
TGI (ACHN renal): > 100 µM
GI50 (LOX IMVI melanoma): 76.5 µM
TGI (LOX IMVI melanoma): > 100 µM
GI50 (BT-549 breast): 40.7 µM
TGI (BT-549 breast): > 100 µM
GI50 (SF-539 CNS): > 100 µM
TGI (SF-539 CNS): > 100 µM
GI50 (U251 CNS): > 100 µM
TGI (U251 CNS): > 100 µM
GI50 (RPMI-8226 leukemia): 28.9 µM
TGI (RPMI-8226 leukemia): > 100 µM
GI50 (UO-31 renal): > 100 µM
TGI (UO-31 renal): > 100 µM
GI50 (SK-MEL-5 melanoma): > 100 µM
TGI (SK-MEL-5 melanoma): > 100 µM
GI50 (EKVX NSCLC): > 100 µM
TGI (EKVX NSCLC): > 100 µM
GI50 (A498 renal): > 100 µM
TGI (A498 renal): > 100 µM
GI50 (SK-MEL-2 melanoma): 25 µM
TGI (SK-MEL-2 melanoma): 56.4 µM
GI50 (T-47D breast): 30.5 µM
TGI (T-47D breast): > 100 µM
GI50 (SN12C renal): > 100 µM
TGI (SN12C renal): > 100 µM
GI50 (M14 melanoma): > 100 µM
TGI (M14 melanoma): > 100 µM
GI50 (COLO 205 colon): > 100 µM
TGI (COLO 205 colon): > 100 µM
GI50 (DU-145 prostate): > 100 µM
TGI (DU-145 prostate): > 100 µM
GI50 (MDA-MB-435): > 100 µM
TGI (MDA-MB-435): > 100 µM
GI50 (SW-620 colon): > 100 µM
TGI (SW-620 colon): > 100 µM
GI50 (HOP-62 NSCLC): > 100 µM
TGI (HOP-62 NSCLC): > 100 µM
GI50 (OVCAR-5 ovarian): > 100 µM
TGI (OVCAR-5 ovarian): > 100 µM
GI50 (SK-MEL-28 melanoma): > 100 µM
TGI (SK-MEL-28 melanoma): > 100 µM
GI50 (K-562 leukemia): 75.1 µM
TGI (K-562 leukemia): > 100 µM
GI50 (A549 NSCLC): > 100 µM
TGI (A549 NSCLC): > 100 µM
GI50 (786-0 renal): > 100 µM
TGI (786-0 renal): > 100 µM
GI50 (TK-10 renal): > 100 µM
TGI (TK-10 renal): > 100 µM
GI50 (UACC-62 melanoma): 83.9 µM
TGI (UACC-62 melanoma): > 100 µM
